Measurements taken from US20200368315A1, “ANTIMICROBIAL PEPTIDES AND ADMIXTURES THEREOF SHOWING ANTIMICROBIAL ACTIVITY AGAINST GRAM-NEGATIVE PATHOGENS” (priority 2017, published 2020).
In brackets after ≈: the same amount, converted by molar mass. Several values for one entry are separate records, joined by “and”; a condition that tells them apart may be missing. Identical values can stand only once. Like-named read-outs stand apart in the source and are kept apart here. No end group written: not given here.

Experiments:
indicator strains = conditions: indicator strain not given; cited from earlier work
E. coli LMG15862 [1] = test: microbe, parasite or virus in culture; format: cell-based, Escherichia coli; conditions: for MICb (GNP concentration when used alone): L-form GNP, E. coli LMG15862, Table 6
Protocol: (§1) Escherichia coli, Klebsiella pneumoniae, Pseudomonas aeruginosa, Acinetobacter baumannii, Enterobacter aerogenes were grown in Luria-Bertani (LB) broth shaken (200 rpm) or on LB agar at 37° C. […] MICs tests were performed in duplicate by a liquid growth inhibition microdilution assays in sterilized polypropylene microtiter plates according to Wiegand and […] [27]. […] The suspension was diluted in a ratio of 1:100 using Mueller Hinton Broth (MHB) and the final inoculum is 5*10^5 CFU/mL. […] The antimicrobials were diluted serially by 1/2 one by one and 50 uL diluted bacterial suspension were added to each well to make the final volume to be 100 uL. Growth control was accomplished by remove 10 uL from well 11 and dilute 1000 times to plate 1/10 suspension on the solid medium. […] The number of colonies on the control agar plate should be around 50 to ensure the concentration of the inoculum and the effectiveness of the experiment. The lowest concentration of the antimicrobials that inhibits visible growth of the indicator is identified as MIC.

K. pneumoniae LMG20218 [2] = test: microbe, parasite or virus in culture; format: cell-based, Klebsiella pneumoniae; conditions: LMG20218
Protocol: as §1

P. aeruginosa LMG 6395 [3] = test: microbe, parasite or virus in culture; format: cell-based, Pseudomonas aeruginosa; conditions: LMG 6395
Protocol: as §1

A. baumannii LMG01041 [4] = test: microbe, parasite or virus in culture; format: cell-based, Acinetobacter baumannii; conditions: LMG01041
Protocol: as §1

E. aerogenes LMG 02094 [5] = test: microbe, parasite or virus in culture; format: cell-based, Enterobacter aerogenes; conditions: LMG 02094
Protocol: as §1

E. coli LMG15862 [6] = format: cell-based, Escherichia coli
Source text: (§2) The test of synergistic effect was processed by conducting standard chequerboard broth microdilution assays. Nisin (Drug X) was loaded two fold serially diluted from row 1 to 10 in X-axis while GNPs (Drug Y) were loaded in eight two fold serially diluted concentrations from line A to H in Y-axis (FIG. 1). The original concentrations of peptides were MICs of each. Row 11 are used as growth control with no peptide was included, while row 12 with MHB medium-only wells was included as a sterility control as referred before. 50 uL fresh bacterial suspension was added to well 1-11 and final volume of each well on the plate is 100 uL.
(§3) To determine whether the combination therapy is additive, synergistic or antagonistic, fractional inhibitory concentration (FIC) indices were calculated. FICI=FICa+FICb=MICac/MICa+MICbc/MICb. The MICa/MICb is the MIC of compound A/B alone. MICac is the MIC of compound A in combination with compound B and MICbc is the MIC of compound B when it was combination with compound A. […]. FICa is FIC of compound A while FICb is FIC of compound B. The FICI is interpreted as follows: synergistic, FICI≤0.5; additive, 0.5<FICI<1; indifferent, 1<FICI<2; antagonistic, FICI>2.

K. pneumoniae LMG20218 [7] = format: cell-based, Klebsiella pneumoniae
Source text: as §2, §3

P. aeruginosa LMG 6395 [8] = format: cell-based, Pseudomonas aeruginosa
Source text: as §2, §3

A. baumannii LMG01041 [9] = format: cell-based, Acinetobacter baumannii
Source text: as §2, §3

E. aerogenes LMG 02094 [10] = format: cell-based, Enterobacter aerogenes
Source text: as §2, §3

A. baumannii LMG01041 [11] = conditions: MIC of GNP alone
Protocol: (§4) The test of synergistic effect was processed by conducting standard chequerboard broth microdilution assays. […] Row 11 are used as growth control with no peptide was included, while row 12 with MHB medium-only wells was included as a sterility control as referred before. 50 uL fresh bacterial suspension was added to well 1-11 and final volume of each well on the plate is 100 uL.
(§5) The test of synergistic effect was processed as method 1.4.
as §3

E. aerogenes LMG 02094 [12] = tested on: E. aerogenes LMG 02094
Protocol: as §4, §5, §3

E. coli LMG15862 [13] = tested on: E. coli LMG15862
Protocol: as §4, §5, §3

K. pneumoniae LMG20218 [14] = tested on: K. pneumoniae LMG20218
Protocol: as §4, §5, §3

P. aeruginosa LMG 6395 [15] = tested on: P. aeruginosa LMG 6395
Protocol: as §4, §5, §3

L. lactis MG1363 = conditions: MG1363
[16] = cited from earlier work
Gram-negative pathogens = format: cell-based; conditions: L-form GNPs alone; five Gram-negative pathogens
Protocol: as §1

[17] = MIC of GNP when used with the MICac concentration of nisin
[18] = MIC of nisin in combination with the GNP at the MICbc concentration
[19] = MIC of GNP in combination with vancomycin at the MICac concentration
[20] = MIC of vancomycin in combination with the GNP at the MICbc concentration

Compound: CN[C@H](CC(C)C)C(=O)N[C@H]1C(=O)N[C@@H](CC(N)=O)C(=O)N[C@H]2C(=O)N[C@H]3C(=O)N[C@H](C(=O)N[C@H](C(=O)O)c4cc(O)cc(O)c4-c4cc3ccc4O)[C@H](O)c3ccc(c(Cl)c3)Oc3cc2cc(c3O[C@@H]2O[C@H](CO)[C@@H](O)[C@H](O)[C@H]2O[C@H]2C[C@](C)(NCc3ccc(-c4ccc(Cl)cc4)cc3)[C@H](O)[C@H](C)O2)Oc2ccc(cc2Cl)[C@H]1O [Compound 1, Chlorobiphenyl Vancomycin]
- Biological activity (relative to the wild type) (indicator strains): Increased (Increased activity, >120% compared with the activity of vancomycin)

Compound: CC[C@H](C)[C@H](NC(=O)[C@H](CCCNC(=N)N)NC(=O)[C@H](CCC(N)=O)NC(=O)[C@@H](NC(=O)[C@@H](NC(=O)[C@@H](N)CCCNC(=N)N)[C@@H](C)CC)C(C)C)C(=O)N[C@@H](CCCCN)C(=O)N[C@@H](CCCCN)C(=O)N[C@@H](Cc1c[nH]c2ccccc12)C(=O)N[C@@H](CC(C)C)C(=O)N[C@@H](CCCNC(=N)N)C(N)=O [GNP-8]
- MICb (GNP concentration when used alone) (E. coli LMG15862 [1]): 12 µM
- MIC value (E. coli LMG15862 [1]; LMG15862): 12 µM (≈ 17.9 µg/mL)
- MIC value (K. pneumoniae LMG20218 [2]): 32 µM (≈ 47.8 µg/mL)
- MICb (MIC of GNP alone) (K. pneumoniae LMG20218 [2]): 32 µM
- MIC value (P. aeruginosa LMG 6395 [3]): 16 µM (≈ 23.9 µg/mL)
- MICb (MIC of GNP alone) (P. aeruginosa LMG 6395 [3]): 16 µM
- MIC value (A. baumannii LMG01041 [4]): >64 µM
- MICb (MIC of GNP alone) (A. baumannii LMG01041 [4]): >64 µM
- MIC value (E. aerogenes LMG 02094 [5]): 128 µM (≈ 191 µg/mL)
- MICb (MIC of GNP alone) (E. aerogenes LMG 02094 [5]): 128 µM
- MICb (E. coli LMG15862 [6]; MIC of GNP alone): 12 µM
- MICbc (E. coli LMG15862 [6]; [17]): 1.5 µM
- MICac (E. coli LMG15862 [6]; [18]): 1.5 µM
- MICb (K. pneumoniae LMG20218 [7]; MIC of GNP alone): 32 µM
- MICbc (K. pneumoniae LMG20218 [7]; [17]): 1 µM
- MICac (K. pneumoniae LMG20218 [7]; [18]): 0.75 µM
- MICb (P. aeruginosa LMG 6395 [8]; MIC of GNP alone): 16 µM
- MICbc (P. aeruginosa LMG 6395 [8]; [17]): 0.5 µM
- MICac (P. aeruginosa LMG 6395 [8]; [18]): 4.5 µM
- MICb (A. baumannii LMG01041 [9]; MIC of GNP alone): >64 µM
- MICbc (A. baumannii LMG01041 [9]; [17]): 4 µM
- MICac (A. baumannii LMG01041 [9]; [18]): 0.19 µM
- MICb (E. aerogenes LMG 02094 [10]; MIC of GNP alone): 128 µM
- MICbc (E. aerogenes LMG 02094 [10]; [17]): 1 µM
- MICac (E. aerogenes LMG 02094 [10]; [18]): 4 µM
- MICb (A. baumannii LMG01041 [11]): >64 µM
- MICb (E. aerogenes LMG 02094 [12]; MIC of GNP alone): 128 µM
- MICbc (E. aerogenes LMG 02094 [12]; [19]): 8 µM and 16 µM
- MICac (E. aerogenes LMG 02094 [12]; [20]): 12 µM and 6 µM
- MICb (E. coli LMG15862 [13]; MIC of GNP alone): 12 µM
- MICbc (E. coli LMG15862 [13]; [19]): 1.5 µM and 0.75 µM
- MICac (E. coli LMG15862 [13]; [20]): 4 µM and 8 µM
- MICb (K. pneumoniae LMG20218 [14]; MIC of GNP alone): 32 µM
- MICbc (K. pneumoniae LMG20218 [14]; [19]): 2 µM and 1 µM
- MICac (K. pneumoniae LMG20218 [14]; [20]): 4 µM and 8 µM
- MICb (P. aeruginosa LMG 6395 [15]; MIC of GNP alone): 16 µM
- MICbc (P. aeruginosa LMG 6395 [15]; [19]): 2 µM and 1 µM
- MICac (P. aeruginosa LMG 6395 [15]; [20]): 8 µM and 16 µM
- MIC value of antimicrobial compounds alone (L. lactis MG1363): 24 µM

Compound: CCCCCCCCCCNCCN[C@@]1(C)C[C@H](O[C@H]2[C@H](Oc3c4cc5cc3Oc3ccc(cc3Cl)[C@@H](O)[C@@H](NC(=O)[C@@H](CC(C)C)NC)C(=O)N[C@@H](CC(N)=O)C(=O)N[C@H]5C(=O)N[C@H]3C(=O)N[C@H](C(=O)N[C@H](C(=O)O)c5cc(O)c(CNCP(=O)(O)O)c(O)c5-c5cc3ccc5O)[C@H](O)c3ccc(c(Cl)c3)O4)O[C@H](CO)[C@@H](O)[C@@H]2O)O[C@@H](C)[C@H]1O [Telavancin]
- Biological activity (relative to the wild type) (indicator strains): Increased (Increased activity, >120% compared with the activity of vancomycin)

Compound: Chlorobiphenyl Des-methyl vancomycin [Compound 8]
- Biological activity (relative to the wild type) (indicator strains): Increased (Increased activity, >120% compared with the activity of vancomycin)

Compound: K12V (ITSISLCTPGCVTGALMGCNMKTATCHCSIHVSK; cysteine pairing not given here; also: lantibiotic nisin-A; UniProt P13068 24-57, looked up, variant K12V)
- Biological activity (relative to the wild type) ([16]; gene nisA (nisin A mutants)): Increased (Increased activity, >120% compared to the activity of wild type nisin A/Z)

Compound: K22S (ITSISLCTPGCKTGALMGCNMSTATCHCSIHVSK; cysteine pairing not given here; also: lantibiotic nisin-A; UniProt P13068 24-57, looked up, variant K22S)
- Biological activity (relative to the wild type) ([16]; gene nisA (nisin A mutants)): Increased (Increased activity, >120% compared to the activity of wild type nisin A/Z)

Compound: M21V (ITSISLCTPGCKTGALMGCNVKTATCHCSIHVSK; cysteine pairing not given here; also: lantibiotic nisin-A; UniProt P13068 24-57, looked up, variant M21V)
- Biological activity (relative to the wild type) ([16]; gene nisA (nisin A mutants)): Increased (Increased activity, >120% compared to the activity of wild type nisin A/Z)

Compound: N20P (ITSISLCTPGCKTGALMGCPMKTATCHCSIHVSK; not fully specified; cysteine pairing not given here; also: lantibiotic nisin-A; UniProt P13068 24-57, looked up, variant N20P)
- Biological activity (relative to the wild type) ([16]; gene nisA (nisin A mutants)): Increased (Increased activity, >120% compared to the activity of wild type nisin A/Z)

Compound: N20V (ITSISLCTPGCKTGALMGCVMKTATCHCSIHVSK; not fully specified; cysteine pairing not given here; also: lantibiotic nisin-A; UniProt P13068 24-57, looked up, variant N20V)
- Biological activity (relative to the wild type) ([16]; gene nisZ (nisin Z mutants)): Increased (Increased activity, >120% compared to the activity of wild type nisin A/Z)

Compound: RIWVIWRR-NH2 [GNP-5]
- MICb (GNP concentration when used alone) (E. coli LMG15862 [1]): 3 µM
- MICb (MIC of GNP alone) (K. pneumoniae LMG20218 [2]): 6 µM
- MICb (MIC of GNP alone) (P. aeruginosa LMG 6395 [3]): 3 µM
- MICb (MIC of GNP alone) (A. baumannii LMG01041 [4]): 2 µM
- MICb (MIC of GNP alone) (E. aerogenes LMG 02094 [5]): 5 µM
- Activity ranking amongst all the GNPs (Gram-negative pathogens): most potent

Compound: Teicoplanin [2a]
- Biological activity (relative to the wild type) (indicator strains): Increased (Increased activity, >120% compared with the activity of vancomycin)
